The subject of series [1] is methicillin-sensitive S. aureus. The conditions noted are these: cited from earlier work.
Series [2] can be described thus: Drug solubility limit in growth medium. Format: physicochemical. The conditions noted are these: plasma or biological fluid.
Series [3] has as its system methicillin-sensitive Staphylococcus aureus (MSSA, ATCC 12600). Description: Minimum inhibitory concentration (MIC) test, CLSI M07-A10. Format: cell-based. On the procedure:
(§1) Antibacterial activity of sodium channel blockers (lidocaine, bupivacaine, tetracaine, procaine, prilocaine), NSAIDs (ketorolac and tolfenamic acid), antioxidants (resveratrol and curcumin), and antibiotics (gentamicin and vancomycin) was performed against methicillin-sensitive Staphylococcus aureus (MSSA, ATCC 12600). The bacterial susceptibility tests were conducted as outlined in the Clinical and Laboratory Standard Institute (CLSI) protocol M07-A10. Bacterial suspensions with a concentration of approximately 5*10^5 CFU/ml were prepared in Lysogeny broth and mixed with the tested drugs. […] Minimum bactericidal concentration (MBC) was determined as the minimum concentration of the tested drug needed to kill 99.9% of bacteria (or 3−log 10 reduction). […] The MBC was measured for lidocaine, bupivacaine, ketorolac, and gentamicin.

Series [4] has as its system Bacillus cereus, MSSA, MRSA, Escherichia coli, Klebsiella pneumoniae, Pseudomonas aeruginosa, Enterobacter aerogenes, and Salmonella Choleraesuis. The conditions noted are these: eight listed bacteria; cited from earlier work.
The conditions of series [5]: systemic administration; cited from earlier work.
Series [6] has as its system methicillin-sensitive Staphylococcus aureus (MSSA, ATCC 12600). Description: Minimum bactericidal concentration (MBC) test. The following applies: MSSA ATCC 12600, kill 99.9% of bacteria. Format: cell-based. On the procedure:
as §1

The next series relates to MSSA (ATCC 14775). Description: Time-kill experiments. Format: cell-based, Staphylococcus aureus. The following applies: between 4 and 24 h. On the procedure: Time-kill curves employing 3 time-points (0, 4, 24 hours) over the period of 24 hours were obtained for characterization of the antibacterial activity of selected combinations against MSSA (ATCC® 14775). Tested combinations of drugs were incubated with 5*10^5 CFU/ml of bacteria in Lysogeny broth at 37° C. At a given time-point, aliquots were collected, and bacterial concentrations were determined using the spread-plate method. The minimum accurately countable concentration was 10^2 CFU/ml. […] The increase of bacterial concentration represented antagonism.

Setting [7] is: Staphylococcus aureus, MSSA ATCC 12600, Lysogeny broth, 24-hour incubation at 37° C., read-out: MIC.

Converted amounts (≈) assume the structure as drawn. Read-outs that look alike come from different tables or passages of the source.

As a reminder, the solubility is the dissolved amount per volume that the medium holds. A low value points to little dissolved substance. One may read the MIC as the smallest concentration in the dilution series that meets the test's criterion for growth inhibition. With `CCCCN1CCCCC1C(=O)Nc1c(C)cccc1C` (stereo not shown) [Bupivacaine], the antibacterial effects result in series [1] is given as “measurable antibacterial effects”. Also, the solubility in series [2] is about 15 mg/mL (≈ 52 mM). Moreover, the minimal inhibitory concentration (MIC) in series [3] (setting [7]) turned out to be 1880 µg/mL (≈ 6.5 mM).

As to `COc1cc(/C=C/C(=O)CC(=O)/C=C/c2ccc(O)c(OC)c2)ccc1O` [Curcumin], the MIC in series [3] (setting [7]) was found to be 188 µg/mL (≈ 0.509 mM). With `CC(C)Cc1ccc(C(C)C(=O)O)cc1` (stereo not shown) [Ibuprofen], the antibacterial activity entry in series [4] is recorded as “measurable antibacterial activity”. In turn, `O=C(c1ccccc1)c1ccc2n1CCC2C(=O)O` (stereo not shown) [Ketorolac] returned a solubility in series [2] of about 18 mg/mL (≈ 70.5 mM). The minimum inhibitory concentration (MIC) in series [3] (setting [7]) stood at 3120 µg/mL (≈ 12.2 mM). Consider `CCN(CC)CC(=O)Nc1c(C)cccc1C` [Lidocaine], for which the antibacterial effects entry in series [1] is recorded as “measurable antibacterial effects”. In addition, in series [3] (setting [7]), the minimal inhibitory concentration (MIC) was 15600 µg/mL (≈ 66.7 mM). Take `CCCNC(C)C(=O)Nc1ccccc1C` (stereo not shown) [Prilocaine]: the minimal inhibitory concentration (MIC) in series [3] (setting [7]) is 25000 µg/mL (≈ 113 mM). On the same count and under the same terms, next, `CCN(CC)CCOC(=O)c1ccc(N)cc1` [Procaine]: 100000 µg/mL (≈ 423 mM); `Oc1ccc(C=Cc2cc(O)cc(O)c2)cc1` [Resveratrol]: 125 µg/mL (≈ 0.548 mM); `CCCCNc1ccc(C(=O)OCCN(C)C)cc1` [Tetracaine]: 938 µg/mL (≈ 3.55 mM). On the same count and under the same terms, next, `Cc1c(Cl)cccc1Nc1ccccc1C(=O)O` [Tolfenamic Acid]: 250 µg/mL (≈ 0.955 mM). `CN[C@H](CC(C)C)C(=O)N[C@H]1C(=O)N[C@@H](CC(N)=O)C(=O)N[C@H]2C(=O)N[C@H]3C(=O)N[C@H](C(=O)N[C@H](C(=O)O)c4cc(O)cc(O)c4-c4cc3ccc4O)[C@H](O)c3ccc(c(Cl)c3)Oc3cc2cc(c3O[C@@H]2O[C@H](CO)[C@@H](O)[C@H](O)[C@H]2O[C@H]2C[C@](C)(N)[C@H](O)[C@H](C)O2)Oc2ccc(cc2Cl)[C@H]1O` [Vancomycin]: the minimum inhibitory concentration (MIC) in series [3] (Staphylococcus aureus, 24 h) was 0.625 µg/mL (≈ 0.000431 mM). In series [5], the “concentration in the bone relative to that in the serum” value was about 20%.

With `CC(=O)Oc1ccccc1C(=O)O` [aspirin], the antibacterial activity entry in series [4] is reported as “measurable antibacterial activity”. `O=C(O)Cc1ccccc1Nc1c(Cl)cccc1Cl` [diclofenac]: in series [4], the antibacterial activity entry is recorded as “measurable antibacterial activity”. On to `Cc1cccc(Nc2ccccc2C(=O)O)c1C` [mefenamic acid], for which, in series [4], the antibacterial activity entry is listed as “measurable antibacterial activity”. A word on the MBC: it is the smallest concentration meeting the test's criterion for killing. Read a low MBC as more potent killing. In turn, Gentamicin showed an MBC in series [6] of 2 µg/mL. In series [3] (MSSA ATCC 12600, Lysogeny broth, 24-hour incubation at 37° C.), this compound had a minimal inhibitory concentration (MIC) of 4 µg/mL. In the series with MSSA (ATCC 14775), the “regrowth in time-kill curves” value was “regrowth phase”.
